From patent US20230114241A1, “METHODS OF TREATING EPILEPSY USING THE SAME” (Trevena, Inc., priority 2019, published 2023)

Key:
[1] = target: T1, human sphingosine-1-phosphate receptor 1 (S1P1) (Homo sapiens, UniProt P21453); experiment: Inhibition of cAMP production (HTRF cAMP HiRange), S1P1 CHO-K1 cells; assay type: cell-based; conditions: for Emax: CHO-K1, efficacy normalized to maximum efficacy of fingolimod, read-out: hS1P1 CAMP SPAN; for EC50: inhibition of cAMP production, S1P1, read-out: hS1P1 CAMP pEC50 (converted)
Method in brief: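 CHO-K1 cells co-expressing human S1P1 (C-terminal ProLink tag) and EA-β-arrestin2, plated overnight; after 30 min compound incubation at 37 °C, intracellular cAMP measured by HTRF TR-FRET following 1 h at room temperature. Values normalized to fingolimod.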
Target sequence in this assay (P21453 whole entry): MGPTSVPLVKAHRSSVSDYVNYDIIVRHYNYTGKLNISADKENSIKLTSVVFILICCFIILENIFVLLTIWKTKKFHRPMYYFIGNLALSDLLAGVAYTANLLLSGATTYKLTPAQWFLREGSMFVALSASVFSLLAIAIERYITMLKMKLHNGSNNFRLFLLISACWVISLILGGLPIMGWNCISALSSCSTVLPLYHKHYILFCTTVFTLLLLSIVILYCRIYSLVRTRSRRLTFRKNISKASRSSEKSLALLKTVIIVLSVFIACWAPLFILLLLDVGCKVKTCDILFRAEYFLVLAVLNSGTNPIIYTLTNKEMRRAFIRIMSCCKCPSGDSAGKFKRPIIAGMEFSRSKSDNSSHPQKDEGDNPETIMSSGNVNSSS

[2] = target: T1, human sphingosine-1-phosphate receptor 1 (S1P1); experiment: β-Arrestin2 recruitment assay (PathHunter), S1P1 CHO-K1 cells; assay type: cell-based; conditions: for Emax: CHO-K1, efficacy normalized to maximum efficacy of fingolimod, read-out: hS1P1 B-arrestin2 SPAN; for EC50: β-arrestin2 recruitment, S1P1, read-out: hS1P1 B-arrestin2 pEC50 (converted)
Method in brief: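 CHO-K1 cells co-expressing EA-β-arrestin2 and ProLink-tagged human S1P1 plated overnight, then stimulated 60 min at 37 °C. Enzyme-fragment complementation (β-galactosidase) detected after 1 h at room temperature by luminescence; values normalized to fingolimod.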
Target sequence in this assay (P21453 whole entry): as above
Target sequence in this assay (P32121 whole entry partner): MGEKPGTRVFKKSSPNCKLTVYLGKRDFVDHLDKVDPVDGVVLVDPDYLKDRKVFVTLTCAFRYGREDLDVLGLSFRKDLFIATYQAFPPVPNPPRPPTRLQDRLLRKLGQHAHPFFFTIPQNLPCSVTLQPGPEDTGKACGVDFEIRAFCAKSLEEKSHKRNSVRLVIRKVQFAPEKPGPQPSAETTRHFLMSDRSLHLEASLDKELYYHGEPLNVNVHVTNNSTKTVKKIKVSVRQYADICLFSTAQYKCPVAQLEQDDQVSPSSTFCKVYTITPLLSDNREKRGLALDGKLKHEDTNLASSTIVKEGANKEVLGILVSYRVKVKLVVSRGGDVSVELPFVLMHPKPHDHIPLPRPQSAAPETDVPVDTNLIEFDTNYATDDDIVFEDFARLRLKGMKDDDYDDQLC

Structure (SMILES) | Emax [1] [%] | EC50 [1] [µM] | Emax [2] [%] | EC50 [2] [µM]
Cc1nccnc1-c1nc(-c2ccc3c(c2)nnn3CC(C)(C)CO)no1 [Compound 540, 2,2-dimethyl-3-(5-(5-(3-methylpyrazin-2-yl)-1,2,4-oxadiazol-3-yl)-1H-benzo[d] [1,2,3]triazol-1-yl)propan-1-ol] | < 75 | > 0.316 | < 75 | > 10
Cc1ccncc1-c1nc(-c2ccc3c(c2)nnn3CC(C)(C)CO)no1 [Compound 541, 2,2-dimethyl-3-(5-(5-(4-methylpyridin-3-yl)-1,2,4-oxadiazol-3-yl)-1H-benzo[d] [1,2,3]triazol-1-yl)propan-1-ol] | < 75 | > 0.316 | < 75 | > 10
CC(C)n1nnc2cc(-c3cc(-c4ccccc4F)c[nH]3)ccc21 [Compound 542, 5-[4-(2-fluorophenyl)-1H-pyrrol-2-yl]-1-(propan-2-yl)-1H-1,2,3-benzotriazole] | < 75 | > 0.316 | < 75 | < 10
CC(C)n1nnc2cc(-c3cc(-c4ccccc4)n(C)c3)ccc21 [Compound 544, 5-(1-methyl-5-phenyl-1H-pyrrol-3-yl)-1-(propan-2-yl)-1H-1,2,3-benzotriazole] | < 75 | > 0.316 | < 75 | < 10
CCC1(CC)CC(=O)c2cc(-c3nc(-c4ccc(F)nc4)no3)ccc2O1 [Compound 546, 2,2-diethyl-6-(3-(6-fluoropyridin-3-yl)-1,2,4-oxadiazol-5-yl)chroman-4-one] | < 75 | > 0.316 | < 75 | > 10
CCC1(CC)CC(=O)c2cc(-c3nc(-c4cccnc4F)no3)ccc2O1 [Compound 547, 2,2-diethyl-6-(3-(2-fluoropyridin-3-yl)-1,2,4-oxadiazol-5-yl)chroman-4-one] | > 75 | < 0.316 | > 75 | < 10
CCC1(CC)CC(=O)c2cc(-c3nc(-c4ccc(C(F)(F)F)nc4)no3)ccc2O1 [Compound 548, 2,2-diethyl-6-(3-(6-(trifluoromethyl)pyridin-3-yl)-1,2,4-oxadiazol-5-yl)chroman-4-one] | < 75 | > 0.316 | < 75 | > 10
CCC1(CC)CC(=O)c2cc(-c3nc(-c4cnccc4C)no3)ccc2O1 [Compound 549, 2,2-diethyl-6-(3-(4-methylpyridin-3-yl)-1,2,4-oxadiazol-5-yl)chroman-4-one] | > 75 | < 0.316 | > 75 | < 10
CCC1(CC)CC(=O)c2cc(-c3nc(-c4ccc(C)nc4)no3)ccc2O1 [Compound 550, 2,2-diethyl-6-(3-(6-methylpyridin-3-yl)-1,2,4-oxadiazol-5-yl)chroman-4-one] | > 75 | > 0.316 | < 75 | < 10
CCC1(CC)CC(=O)c2cc(-c3nc(-c4cncc(F)c4)no3)ccc2O1 [Compound 551, 2,2-diethyl-6-(3-(5-fluoropyridin-3-yl)-1,2,4-oxadiazol-5-yl)chroman-4-one] | > 75 | < 0.316 | < 75 | < 10
CCC1(CC)CC(=O)c2cc(-c3ncc(-c4ccnc(O)c4)cn3)ccc2O1 [Compound 552, 2,2-diethyl-6-(5-(2-hydroxypyridin-4-yl)pyrimidin-2-yl)chroman-4-one] | < 75 | > 0.316 | < 75 | > 10
CCC1(CC)CC(=O)c2cc(-c3nc(-c4cccc(OC)n4)no3)ccc2O1 [Compound 553, 2,2-diethyl-6-[3-(6-methoxypyridin-2-yl)-1,2,4-oxadiazol-5-yl]-3,4-dihydro-2H-1-benzopyran-4-one] | > 75 | > 0.316 | < 75 | < 10
CCC1(CC)CC(=O)c2cc(-c3nc(-c4ccnc(C(N)=O)c4)no3)ccc2O1 [Compound 555, 4-(5-(2,2-diethyl-4-oxochroman-6-yl)-1,2,4-oxadiazol-3-yl)picolinamide] | < 75 | < 0.316 | < 75 | < 10
CCC1(CC)CC(=O)c2cc(-c3nc(-c4ccnc(NS(C)(=O)=O)c4)no3)ccc2O1 [Compound 556, N-(4-(5-(2,2-diethyl-4-oxochroman-6-yl)-1,2,4-oxadiazol-3-yl)pyridin-2-yl)methanesulfonamide] | > 75 | < 0.316 | < 75 | < 10

More lines, now with the values ahead:

Emax [1] [%] | EC50 [1] [µM] | Emax [2] [%] | EC50 [2] [µM] | Structure (SMILES)
> 75 | > 0.316 | < 75 | < 10 | CCC1(CC)CC(=O)c2cc(-c3nc(-c4cncc(C(F)(F)F)c4)no3)ccc2O1 [Compound 557, 2,2-diethyl-6-(3-(5-(trifluoromethyl)pyridin-3-yl)-1,2,4-oxadiazol-5-yl)chroman-4-one]
> 75 | < 0.316 | > 75 | < 10 | CCC1(CC)CC(=O)c2cc(-c3nc(-c4cnccc4C(F)(F)F)no3)ccc2O1 [Compound 558, 2,2-diethyl-6-(3-(4-(trifluoromethyl)pyridin-3-yl)-1,2,4-oxadiazol-5-yl)chroman-4-one]
> 75 | < 0.316 | > 75 | < 10 | CCC1(CC)CC(=O)c2cc(-c3noc(-c4cccnc4)n3)ccc2O1 [Compound 559, 2,2-diethyl-6-(5-(pyridin-3-yl)-1,2,4-oxadiazol-3-yl)chroman-4-one]
> 75 | < 0.316 | > 75 | < 10 | Cc1nc2cc(-c3nnc(-c4ccc(NC(C)C)c(C#N)c4)o3)ccc2[nH]1 [Compound 560, 5-[5-(2-methy1-1H-1,3-benzodiazol-5-yl)-1,3,4-oxadiazol-2-yl]-2-[(propan-2-yl)amino]benzonitrile]
> 75 | < 0.316 | < 75 | < 10 | Cc1nc2cc(-c3nnc(-c4ccc(NCC(F)F)c(C#N)c4)o3)ccc2[nH]1 [Compound 561, 2-[(2,2-difluoro-ethyl)amino]-5-[5-(2-methyl-1H-1,3-benzodiazol-5-yl)-1,3,4-oxadiazol-2-yl]benzonitrile]
> 75 | < 0.316 | > 75 | < 10 | CCC1(CC)CC(=O)c2cc(-c3nc(-c4cccnc4C(F)(F)F)no3)ccc2O1 [Compound 562, 2,2-diethyl-6-(3-(2-(trifluoromethyl)pyridin-3-yl)-1,2,4-oxadiazol-5-yl)chroman-4-one]
> 75 | < 0.316 | < 75 | < 10 | CCC1(CC)CC(=O)c2cc(-c3nc(-c4cncc(C)c4)no3)ccc2O1 [Compound 563, 2,2-diethyl-6-(3-(5-methylpyridin-3-yl)-1,2,4-oxadiazol-5-yl)chroman-4-one]
> 75 | < 0.316 | > 75 | < 10 | CCC1(CC)CC(=O)c2cc(-c3nc(-c4cccnc4C)no3)ccc2O1 [Compound 564, 2,2-diethyl-6-(3-(2-methylpyridin-3-yl)-1,2,4-oxadiazol-5-yl)chroman-4-one]
> 75 | < 0.316 | > 75 | < 10 | COc1ccccc1-c1cnc(-c2ccc3c(c2)nnn3C(C)C)nc1 [Compound 565, 1-isopropyl-5-(5-(2-methoxyphenyl)pyrimidin-2-yl)-1H-benzo[d][1,2,3]triazole]
< 75 | > 0.316 | < 75 | > 10 | COc1ccccc1-c1c[nH]c(-c2ccc3c(c2)nnn3C(C)C)c1 [Compound 566, 5-[4-(2-methoxyphenyl)-1H-pyrrol-2-yl]-1-(propan-2-yl)-1H-1,2,3-benzotriazole]
> 75 | > 0.316 | < 75 | > 10 | Cn1ccnc1-c1noc(-c2ccc3c(c2)nnn3CC(C)(C)O)n1 [Compound 567, 2-methyl-1-(5-[3-(1-methyl-1H-imidazol-2-yl)-1,2,4-oxadiazol-5-yl]-1H-1,2,3-benzotriazol-1-yl}propan-2-ol]
> 75 | < 0.316 | > 75 | < 10 | CCC1(CC)CC(=O)c2cc(-c3nc(-c4ccc(NS(C)(=O)=O)cc4OC)no3)ccc2O1 [Compound 568, N-{4-[5-(2,2-diethyl-4-oxo-3,4-dihydro-2H-1-benzopyran-6-yl)-1,2,4-oxadiazol-3-yl]-3-methoxyphenyl}methane-sulfonamide]
> 75 | < 0.316 | < 75 | < 10 | Cc1nc2cc(-c3nc(-c4ccc5c(c4)nnn5C(C)C)no3)ccc2[nH]1 [Compound 571, 5-[5-(2-methyl-1H-1,3-benzodiazol-5-yl)-1,2,4-oxadiazol-3-yl]-1-(propan-2-yl)-1H-1,2,3-benzotriazole]
< 75 | > 0.316 | > 75 | > 10 | CC(C)Nc1ccc(-c2nnc(-c3ccc4c(c3)ncn4C)o2)cc1C#N [Compound 572, 5-[5-(1-methyl-1H-1,3-benzodiazol-5-yl)-1,3,4-oxadiazol-2-yl]-2-[(propan-2-yl)amino]benzonitrile]
< 75 | > 0.316 | < 75 | > 10 | Cn1cnc2cc(-c3nnc(-c4ccc(NCC(F)F)c(C#N)c4)o3)ccc21 [Compound 573, 2-[(2,2-difluoro-ethyl)amino]-5-[5-(1-methyl-1H-1,3-benzodiazol-5-yl)-1,3,4-oxadiazol-2-yl]benzonitrile]
